Converted amounts (≈) assume the structure as drawn. Where two headings read alike, the source gives them in different places. Where a SMILES comes first, the peptide text is derived from it. [ ]: non-standard residue; d: D form. The star is where a group is joined. Gly(N(CH2)2(3-indolyl)) = O=C(O)CNCCc1c[nH]c2ccccc12; Gly(Nα-4-Cl-benzyl) = O=C(O)CNCc1ccc(Cl)cc1; N(4-Br-benzyl)Gly = O=C(O)CNCc1ccc(Br)cc1; N(2-thienylmethyl)Gly = O=C(O)CNCc1cccs1; N(tridecyl)Gly = CCCCCCCCCCCCCNCC(=O)O; NBzl(4-I)Gly = O=C(O)CNCc1ccc(I)cc1; Gly(N-2-aminoethyl) = NCCNCC(=O)O; NFurfurylGly = O=C(O)CNCc1ccco1; X2 = CCCCCCCCN(CCCCCCCC)CC(=O)*; Gly(N-cHex) = O=C(O)CNC1CCCCC1; X1 = CCCCCCN(CCCCCC)CC(=O)*; Nphe = O=C(O)CNCc1ccccc1; Nlys = NCCCCNCC(=O)O; Sar = CNCC(=O)O
Key:
C. neoformans [1] = assay: microbe, parasite or virus in culture; format: cell-based, Cryptococcus neoformans
Description: Cell solution was diluted into RPMI-MOPS (1:100) followed by another dilution into RPMI-MOPS (1:20). […] Plates were incubated for 72 hours at 35° C. MIC was determined as the lowest concentration of individual compound or combined compounds inhibiting pathogen growth. Fractional inhibitory concentration index (FICi) was determine using the following equation: FICi values were interpreted as follows: FICi<0.5 synergistic; 0.5≤FICi≤4 indifferent; FICi>4 antagonist (Johnson et al., Antimicrob. Agents Chemother. 48, 693-715 (2004)).

C. neoformans [2] = format: cell-based, Cryptococcus neoformans; settings: 72 h
Description: The minimum inhibitory concentration (MIC) of peptoids against fungal pathogens C. albicans and C. neoformans was determined following CLSI guidelines (CLSI. Reference method for broth dilution antifungal susceptibility testing of yeasts; approved standard-third edition; CLSI document M27-A3. (Clinical and Laboratory Standards Institute, 2008). […] This inoculant was diluted 1:100 into RPMI-MOPS and then further diluted 1:20 into RPMI-MOPS. 198 μL of inoculant was seeded into each well of a 96 well black-walled plate. 2-fold serial dilutions of 100× peptoid solutions were prepared in water and 2 μL of peptoid were added to each well in triplicate. […] MIC was defined as the lowest concentration of compound preventing fungal growth. This assay was repeated 3 times on separate days with each compound. […] The addition of 0.1 mL cell solution to 9.9 mL of RPMI-MOPS produced a 1:100 cell solution. After vortexing, 0.5 mL of the […] was added to 9.5 mL RPMI-MOPS to produce a 1:20 cell solution. 198 μL of the 1:20 solution was added to the wells of an opaque 96-well plate, apart from the wells designated for the medial control. […] Amphotericin B was used as a positive control, and sterile water was used for the vehicle control. The plates were incubated for 72 hours at 35° C. After incubation, the concentration of compound resulting in no visual growth was recorded as the MIC. All assays performed in biological triplicate on different days.

[3] = Mammalian cytotoxicity, MTT, HepG2; format: cell-based, human; settings: human, HepG2 hepatocellular carcinoma cells
Description: Hepatocellular carcinoma (HepG2), mouse fibroblast (3T3), human lung (HPL1A), and human keratinocyte (HaCat) cells were cultured in Dulbecco modified eagle media (DMEM) containing 10% fetal bovine serum (FBS) and 1% penicillin, streptomycin, and glutamine (PSG) at 37° C. and 5% CO2. Cells were collected and adjusted to […] to 4×10^5 cells/mL in phenol-red free DMEM and plated (100 μL) 96 well plates. 2-fold serial dilutions of 10× peptoid (11.1 μL) were added to each well in triplicate. Water (vehicle) was used as a negative control. Plates were incubated at 37° C. in 5% CO2 for 72 hours. Thiazolyl blue tetrazolium bromide (MTT) was added to each well (5 mg/mL; 20 μL) and incubated for 3 hours. Media was removed, DMSO (100 μL) was added, and plates were incubated at 37° C. for 10 minutes. Plates were read on a SpectraMax M5 plate reader (Abs. 570 nm). The concentration of compound resulting in a 50% reduction in growth compared to control (toxicity dose 50%; TD50) was determined using GraFit. This procedure was repeated three times on separate days.
Cytotoxicity against HepG2 hepatocellular carcinoma cells was done as previously described (Green et al. ACS infectious diseases, (2022); Corson et al. ACS medicinal chemistry letters 7 12, 1139-1144 (2016)). HepG2 cells were maintained in culture in T-75 flasks using Dulbecco's Modified Eagle's Media (DMEM) with phenol red pH indicator and supplemented with 10% fetal bovine serum (FBS) and 1% penicillin, streptomycin, and glutamine (PSG). The cells were incubated at 37° C. and 5% CO2 in a humidified incubator until desired confluency was achieved. The media was removed from the flask, and the cells were washed 1× with 10 mL of phosphate-buffered saline (PBS; 11.8 mM phosphate, 140.4 mM NaCl; pH 7.4) which was then discarded. To remove the adhered cells from the flask, 2 mL of trypsin was added, and the cells were incubated for 10 minutes. To quench the trypsin, 8 mL of phenol red-free DMEM with 10% FBS and 1% PGS was added, and the cell solution was transferred to a 15 mL conical tube. After the cells were pelleted by centrifugation at 1000 rpm for 5 minutes, the supernatant was poured off and cells resuspended in the volume of phenol red-free media needed for the assay. Cell concentration was determined by counting with a hemocytometer, and the solution was diluted with media until a concentration of 1×10^5 cells/mL was achieved. A 100 μL aliquot of cell solution was added to each well of a 96-well plate, apart from the 3 wells used for a media control. Cells were incubated for 2-3 hours at 37° C. and 5% CO2 until cells were adherent.
Compound stocks of 20 mg/mL were used to prepare 2-fold serial dilutions of each compound in sterile water, giving final concentrations of 200, 100, 50, 25, 12.5, 6.25, 3.13 and 1.56 μg/mL. 11.1 μL of prepared compound solutions was added to the appropriate wells in triplicate. A negative vehicle control of sterile water, as well as the aforementioned media control, were used. The plates were incubated for 72 hours at 37° C. and 5% CO2. After incubation, 20 μL of 5 mg/mL 3-(4,5-dimethylthiazol-2-yl)-2,5-diphenyltetrazolium bromide (MTT) in water was added to each well. The plate was incubated for 3 hours at 37° C. and 5% CO2. Media was removed from each well using a sterile glass Pasteur pipette. 100 μL of DMSO was added to each well and incubated for 15 minutes at 37° C. Absorbance was read at 570 nm using a SpectraMax M5 Plate Reader. This MTT assay was performed in biological duplicate unless discrepant results were observed. If this was the case, the assay was performed in biological triplicate for further verification. The reported value is the average of biological replicates with standard deviation.

Row | Structure (SMILES) | C. neoformans MIC (C. neoformans [2]) [mg/L] | CC50 at 72 h [3] [mg/L] | other results
1 | C[C@@H]1[C@H](O)[C@@H](C)/C=C/C=C/C=C/C=C/C=C/C=C/C=C/[C@H](O[C@@H]2O[C@H](C)[C@@H](O)[C@H](N)[C@@H]2O)C[C@@H]2O[C@](O)(C[C@@H](O)C[C@@H](O)[C@H](O)CC[C@@H](O)C[C@@H](O)CC(=O)O[C@H]1C)C[C@H](O)[C@H]2C(=O)O [Amphotericin B] | – | – | interpretation of combination with RMG8-8 (C. neoformans [1]; FICi<0.5 synergistic, 0.5≤FICi≤4 indifferent, FICi>4 antagonist): mild additive effect; Combination MIC RMG8-8:Drug, RMG8-8 part (C. neoformans [1]; RMG8-8 concentration in combination with the named drug): 0.8 mg/L; MIC (compound alone) (C. neoformans [1]; checkerboard, 72 hours at 35° C.): 0.25 mg/L; Combination MIC RMG8-8:Drug, Drug part (C. neoformans [1]; drug concentration in combination with RMG8-8): 0.06 mg/L; FICi (C. neoformans [1]; named drug in combination with RMG8-8): 0.75
2 | CCCCCCN(CCCCCC)CC(=O)N(CC(=O)N(CCCCN)CC(=O)N(CCN)CC(=O)N(CC(N)=O)C1CCCCC1)C1CCCCC1 [Compound 6] (X1-[Gly(N-cHex)][Nlys][Gly(N-2-aminoethyl)][Gly(N-cHex)]-NH2) | 100 | – | CC50 at 72 h ([3]; Example 2, 72 hours, MTT, read-out: HepG2 TD50): > 200 mg/L
3 | CCCCCCCCCCCCCNCC(=O)N(CC(=O)N(CCCCN)CC(=O)N(CCN)CC(=O)N(CC(N)=O)Cc1ccccc1)Cc1ccccc1 [Compound 15] (H-[N(tridecyl)Gly][Nphe][Nlys][Gly(N-2-aminoethyl)][Nphe]-NH2) | 1.56 to 3.13 | 145 ± 96 (≈ 186 µM) | –
4 | CCCCCCCCCCCCCNCC(=O)N(CC(=O)N(CCCCN)CC(=O)N(CCN)CC(=O)N(CC(N)=O)Cc1ccc(Cl)cc1)Cc1ccc(Cl)cc1 [Compound 18] (H-[N(tridecyl)Gly][Gly(Nα-4-Cl-benzyl)][Nlys][Gly(N-2-aminoethyl)][Gly(Nα-4-Cl-benzyl)]-NH2) | 3.13 | 71.8 ± 24 (≈ 84.7 µM) | –
5 | CCCCCCCCCCCCCNCC(=O)N(CC(=O)N(CCCCN)CC(=O)N(CCN)CC(=O)N(CC(N)=O)Cc1ccc(Br)cc1)Cc1ccc(Br)cc1 [Compound 19] (H-[N(tridecyl)Gly][N(4-Br-benzyl)Gly][Nlys][Gly(N-2-aminoethyl)][N(4-Br-benzyl)Gly]-NH2) | 3.13 | 72.4 ± 20 (≈ 77.3 µM) | –
6 | CCCCCCCCCCCCCNCC(=O)N(CC(=O)N(CCCCN)CC(=O)N(CCN)CC(=O)N(CC(N)=O)Cc1ccc(I)cc1)Cc1ccc(I)cc1 [Compound 20] (H-[N(tridecyl)Gly][NBzl(4-I)Gly][Nlys][Gly(N-2-aminoethyl)][NBzl(4-I)Gly]-NH2) | 6.25 | 72.2 ± 24 (≈ 70 µM) | –
7 | CCCCCCCCCCCCCNCC(=O)N(CC(=O)N(CCCCN)CC(=O)N(CCN)CC(=O)N(CC(N)=O)c1cccc2ccccc12)c1cccc2ccccc12 [Compound 21] | 6.25 | 118 ± 19 (≈ 139 µM) | –
8 | CCCCCCCCCCCCCNCC(=O)N(CC(=O)N(CCCCN)CC(=O)N(CCN)CC(=O)N(CC(N)=O)c1ccc2c(c1)CCC2)c1ccc2c(c1)CCC2 [Compound 22] | 1.56 to 3.13 | 91 ± 4 (≈ 109 µM) | –
9 | CCCCCCCCCCCCCNCC(=O)N(CCc1c[nH]c2ccccc12)CC(=O)N(CCCCN)CC(=O)N(CCN)CC(=O)N(CCc1c[nH]c2ccccc12)CC(N)=O [Compound 23] (H-[N(tridecyl)Gly][Gly(N(CH2)2(3-indolyl))][Nlys][Gly(N-2-aminoethyl)][Gly(N(CH2)2(3-indolyl))]-NH2) | 1.56 to 3.13 | 85 ± 10 (≈ 96 µM) | –
10 | CCCCCCCCCCCCCNCC(=O)N(CC(=O)N(CCCCN)CC(=O)N(CCN)CC(=O)N(CC(N)=O)Cc1ccco1)Cc1ccco1 [Compound 24] (H-[N(tridecyl)Gly][NFurfurylGly][Nlys][Gly(N-2-aminoethyl)][NFurfurylGly]-NH2) | 3.13 to 6.25 | 143 ± 94 (≈ 188 µM) | –
11 | CCCCCCCCCCCCCNCC(=O)N(CC(=O)N(CCCCN)CC(=O)N(CCN)CC(=O)N(CC(N)=O)Cc1cccs1)Cc1cccs1 [Compound 25] (H-[N(tridecyl)Gly][N(2-thienylmethyl)Gly][Nlys][Gly(N-2-aminoethyl)][N(2-thienylmethyl)Gly]-NH2) | 1.56 to 3.13 | 154 ± 47 (≈ 195 µM) | –
12 | CNCC(=O)N(CC(=O)N(CCCCN)CC(=O)N(CCN)CC(=O)N(CC(N)=O)C1CCCCC1)C1CCCCC1 [Position 1] (H-[Sar][Gly(N-cHex)][Nlys][Gly(N-2-aminoethyl)][Gly(N-cHex)]-NH2) | – | > 200 | MIC C. neoformans (C. neoformans [2]): >50.00 mg/L
13 | CCCCCCCCCCCCCNCC(=O)N(C)CC(=O)N(CCCCN)CC(=O)N(CCN)CC(=O)N(CC(N)=O)C1CCCCC1 [Position 2] (H-[N(tridecyl)Gly][Sar][Nlys][Gly(N-2-aminoethyl)][Gly(N-cHex)]-NH2) | – | > 200 | MIC C. neoformans (C. neoformans [2]): 6.25 mg/L (≈ 8.99 µM)
14 | CCCCCCCCCCCCCNCC(=O)N(CC(=O)N(C)CC(=O)N(CCN)CC(=O)N(CC(N)=O)C1CCCCC1)C1CCCCC1 [Position 3] | – | 83 (≈ 118 µM) | MIC C. neoformans (C. neoformans [2]): 3.13 mg/L (≈ 4.43 µM)
15 | CCCCCCCCCCCCCNCC(=O)N(CC(=O)N(CCCCN)CC(=O)N(C)CC(=O)N(CC(N)=O)C1CCCCC1)C1CCCCC1 [Position 4] (H-[N(tridecyl)Gly][Gly(N-cHex)][Nlys][Sar][Gly(N-cHex)]-NH2) | – | 84 (≈ 114 µM) | MIC C. neoformans (C. neoformans [2]): 3.13 mg/L (≈ 4.26 µM)
16 | CCCCCCCCCCCCCNCC(=O)N(CC(=O)N(CCCCN)CC(=O)N(CCN)CC(=O)N(C)CC(N)=O)C1CCCCC1 [Position 5] (H-[N(tridecyl)Gly][Gly(N-cHex)][Nlys][Gly(N-2-aminoethyl)][Sar]-NH2) | – | > 200 | MIC C. neoformans (C. neoformans [2]): 6.25 mg/L (≈ 8.99 µM)

Now from value to molecule, other results behind:

Row | C. neoformans MIC (C. neoformans [2]) [mg/L] | Structure (SMILES) | CC50 at 72 h [3] [mg/L] | other results
17 | 3.13 | CCCCCCCCCCCCCNCC(=O)N(CC(=O)N(CCCCN)CC(=O)N(CCCCN)CC(=O)N(CC(N)=O)C1CCCCC1)C1CCCCC1 [Compound 2] (H-[N(tridecyl)Gly][Gly(N-cHex)][Nlys][Nlys][Gly(N-cHex)]-NH2) | 165 ± 97 (≈ 208 µM) | –
18 | 6.25 | CCCCCCCCN(CCCCCCCC)CC(=O)N(CC(=O)N(CCCCN)CC(=O)N(CCN)CC(=O)N(CC(N)=O)C1CCCCC1)C1CCCCC1 [Compound 7] (X2-[Gly(N-cHex)][Nlys][Gly(N-2-aminoethyl)][Gly(N-cHex)]-NH2) | 162 ± 29 (≈ 201 µM) | –
